Assay results published in US12410163B2, “Compounds as GLP-IR agonists” (Terns Pharmaceuticals, Inc., priority 2022, dated 2025).

Assay: Metabolic stability in hepatocytes
Type: in vitro ADME
Conditions: cryopreserved human hepatocytes (suspension), 1×10^6 cells/mL; for half-life at 1 μM: 0-240 min, read-out: hHep t1/2; for CLint scaled at 1 μM: intrinsic clearance, read-out: hHep CLint
Procedure: Test compounds are incubated in human hepatocytes and stability is assessed from the substrate […] approach. Test compounds are dissolved in dimethyl sulfoxide (DMSO) to create a 10 mM Stock, and then further diluted to create a 1000× Working Stock of 1 mM with DMSO in 96-well plates for test compounds and the positive control (midazolam). Vials containing cryopreserved hepatocytes are removed from the liquid nitrogen tank and immediately immersed in a 37° C. water bath. The vials are shaken gently until the contents had thawed and were then immediately emptied into 48 mL of pre-warmed HT Medium in a 50 mL conical tube. Cells remaining in the vial are resuspended with 1.0 mL of pre-warmed HT Medium and added to the conical tube. The tube is capped and then gently inverted several times to resuspend the hepatocytes. The cell suspension is centrifuged at 50×g at room temperature for 5 minutes and the supernatant discarded. The cell pellet is loosened by gently swirling the centrifuge tube and is re-suspended in 4 mL of warm Dulbecco's Modified Eagle medium (DMEM). Cell density is determined by a cell counter by Nexcelom, and DMEM medium is added to obtain a target density of 1×10^6 cells/mL. The assay is carried out in 96-well microtiter plates. Test Compounds are incubated at 1 μM with 1×10^6 cells/mL hepatocytes in DMEM for 0, 30, 60, 120 and 240 minutes. The incubation is carried out with gentle shaking at 37° C. under a humid atmosphere of 95% air/5% CO2. The volume of the incubation mixture is 37 μL with a final 0.1% DMSO. At each of the time points, the incubation is stopped by adding 150 μL quenching solution (100% acetonitrile, 0.1% formic acid containing bucetin as an internal standard for positive ESI mode). Subsequently, the mixtures are vortexed for 20 min and centrifuged at 4,000 RPM at 10° C. The supernatant (80 μL) is transferred to a clean 96-well plate and analyzed by LC-MS/MS. Midazolam at 1 μM with a final 0.1% DMSO is included as a positive control to verify assay performance. The percent parent remaining, intrinsic and predicted hepatic clearance and t1/2 are calculated. All samples are analyzed by LC-MS/MS using an AB Sciex API 4000 instrument, coupled to a Shimadzu LC-20AD LC Pump system. Separation is achieved using a Waters Atlantis T3 dC18 reverse phase HPLC column (20 mm×2.1 mm) at a flow rate of 0.5 mL/min. The mobile phase consisted of 0.1% formic acid in water (solvent A) and 0.1% formic acid in 100% acetonitrile (solvent B). Elution conditions are detailed below.
The ion optics of each test compound are optimized for their declustering potential (DP), […] (CE), collision-cell exit potential (CXP) and used in a selected ion monitoring experiment in the positive ion mode. The peak area ratio of each test compound to internal standard is then evaluated for stability. The extent of metabolism is calculated based on the disappearance of the test compound, compared to its initial concentration. The initial rates of clearance of the test compound are calculated using the linear regression plot of semi-log % remaining of the compound versus time. The elimination rate constant (k) of the linear regression plot is then used to determine t1/2 and the intrinsic clearance (CLint) using the following formula, where Chepatocyte (million cells/mL) is the cell density of the incubation: k=−slope t1/2=0.693/k CLint=k/Chepatocyte
Test compounds were incubated in human hepatocytes and stability was assessed from the substrate […] approach. Test compounds were dissolved in dimethyl sulfoxide (DMSO) to create a 10 mM Stock, and then further diluted to create a 1000× Working Stock of 1 mM with DMSO in 96-well plates for test compounds and the positive control (midazolam). Vials containing cryopreserved hepatocytes were removed from the liquid nitrogen tank and immediately immersed in a 37° C. water bath. […]

| half-life at 1 μM [h] | CLint scaled at 1 μM [mL/min/kg] | SMILES |
| --- | --- | --- |
| 3.36 | 11.9 | N#Cc1ccc(COc2cccc(N3CCN(Cc4nc5ccc(C(=O)O)cc5n4Cc4cncs4)[C@@H]4C[C@@H]43)n2)c(F)c1 (single isomer, unassigned) [Compound 1, 2-((5-(6-((4-cyano-2-fluorobenzyl)oxy)pyridin-2-yl)-2,5-diazabicyclo[4.1.0]heptan-2-yl)methyl)-1-(thiazol-5-ylmethyl)-1H-benzo[d]imidazole-6-carboxylic Acid] |
| – | 5.01 | N#Cc1ccc(COc2cccc(N3CCN(Cc4nc5ccc(C(=O)O)cc5n4Cc4cncs4)[C@H]4C[C@H]43)n2)c(F)c1 (single isomer, unassigned) [Compound 2, 2-((5-(6-((4-Cyano-2-fluorobenzyl)oxy)pyridin-2-yl)-2,5-diazabicyclo[4.1.0]heptan-2-yl)methyl)-1-(thiazol-5-ylmethyl)-1H-benzo[d]imidazole-6-carboxylic Acid] |
| 6.27 | 6.4 | N#Cc1ccc(COc2ccnc(N3CCN(Cc4nc5ccc(C(=O)O)cc5n4Cc4cncs4)[C@@H]4C[C@@H]43)n2)c(F)c1 [Compound 20, 2-((5-(4-((4-Cyano-2-fluorobenzyl)oxy)pyrimidin-2-yl)-2,5-diazabicyclo[4.1.0]heptan-2-yl)methyl)-1-(thiazol-5-ylmethyl)-1H-benzo[d]imidazole-6-carboxylic Acid] |

The next lines start with the compound.

| SMILES | half-life at 1 μM [h] | CLint scaled at 1 μM [mL/min/kg] |
| --- | --- | --- |
| N#Cc1ccc(COc2cccc([C@H]3CCN(Cc4nc5ccc(C(=O)O)cc5n4Cc4cncs4)[C@@H]4C[C@H]34)n2)c(F)c1 (single isomer, unassigned) [Compound 4, 2-((5-(6-((4-Cyano-2-fluorobenzyl)oxy)pyridin-2-yl)-2-azabicyclo[4.1.0]heptan-2-yl)methyl)-1-(thiazol-5-ylmethyl)-1H-benzo[d]imidazole-6-carboxylic Acid] | 2.87 | 14 |
| N#Cc1ccc(COc2cccc([C@@H]3CCN(Cc4nc5ccc(C(=O)O)cc5n4Cc4cncs4)[C@@H]4C[C@@H]43)n2)c(F)c1 (single isomer, unassigned) [Compound 5, 2-((5-(6-((4-Cyano-2-fluorobenzyl)oxy)pyridin-2-yl)-2-azabicyclo[4.1.0]heptan-2-yl)methyl)-1-(thiazol-5-ylmethyl)-1H-benzo[d]imidazole-6-carboxylic Acid] | 5.37 | 7.46 |
| N#Cc1ccc(COc2cccc([C@H]3CCN(Cc4nc5ccc(C(=O)O)cc5n4Cc4cncs4)[C@H]4C[C@@H]34)n2)c(F)c1 (single isomer, unassigned) [Compound 14, 2-((5-(6-((4-Cyano-2-fluorobenzyl)oxy)pyridin-2-yl)-2-azabicyclo[4.1.0]heptan-2-yl)methyl)-1-(thiazol-5-ylmethyl)-1H-benzo[d]imidazole-6-carboxylic Acid] | 5.1 | 7.86 |
| N#Cc1ccc(COc2cccc([C@@H]3CCN(Cc4nc5ccc(C(=O)O)cc5n4Cc4cncs4)[C@H]4C[C@@H]34)n2)c(F)c1 (single isomer, unassigned) [Compound 15, 2-((5-(6-((4-Cyano-2-fluorobenzyl)oxy)pyridin-2-yl)-2-azabicyclo[4.1.0]heptan-2-yl)methyl)-1-(thiazol-5-ylmethyl)-1H-benzo[d]imidazole-6-carboxylic Acid] | 4.33 | 9.24 |
| N#Cc1ccc(COc2cccc(N3CCN(Cc4nc5ccc(C(=O)O)cc5n4C[C@@H]4CCO4)[C@@H]4C[C@@H]43)n2)c(F)c1 (single isomer, unassigned) [Compound 43] | 5.65 | 7.09 |
| CC1(c2ccc(C#N)cc2F)Oc2cccc(C3CCN(Cc4nc5ccc(C(=O)O)cc5n4Cc4cncs4)CC3)c2O1 (stereo not drawn) [Compound 18] | 0.23 | 17.5 |
| CC1(c2ccc(C#N)cc2F)Oc2cccc(N3CCN(Cc4nc5ccc(C(=O)O)cc5n4CC4(C#N)CC4)C4CC43)c2O1 (stereo not drawn) [Compound 40, 2-((5-(2-(4-Cyano-2-fluorophenyl)-2-methylbenzo[d][1,3]dioxol-4-yl)-2,5-diazabicyclo[4.1.0]heptan-2-yl)methyl)-1-((1-cyanocyclopropyl)methyl)-1H-benzo[d]imidazole-6-carboxylic Acid] | 6.85 | 5.86 |
| CCn1nncc1Cn1c(CN2CCN(c3cccc(OCc4ccc(C#N)cc4F)n3)[C@H]3C[C@H]32)nc2ccc(C(=O)O)cc21 [Compound 45, 2-((5-(6-((4-Cyano-2-fluorobenzyl)oxy)pyridin-2-yl)-2,5-diazabicyclo[4.1.0]heptan-2-yl)methyl)-1-((1-ethyl-1H-1,2,3-triazol-5-yl)methyl)-1H-benzo[d]imidazole-6-carboxylic Acid] | 6.2 | 6.46 |
